Assay results reported in US20190381500A1, “CELL CONTAINED CONTAINER AND CELL CONTAINED CONTAINER PRODUCING METHOD, AND CELL CHIP” (priority 2018, published 2019).

Legend:
[1] = system: nerve cells C and nerve cells D (differentiated from human induced iPS cells); assay: Drug efficacy screening (Hoechst 33342 / PI / Calcein AM staining, fluorescence microscope cell counting) in cell contained container 2; assay type: cell-based; settings: for Living cells / Dead cells: next day after addition
Method: The amount of the drug solution used was from 50 μL through 5,000 μL.
On the next day after the drug solution was added, the culture medium in each concave of the cell contained container was removed, and the concaves were washed with Hank's balanced salt solution (HBSS, available from Thermo Fisher Scientific Inc.) (200 microliters) at room temperature. After washing, HOECHST 33342 (available from Thermo Fisher Scientific Inc.), PI (Propidium Iodide, available from Cosmo Bio Co., Ltd.), and CALSEIN AM (available from Takara Bio Inc.) were each diluted 1,000-fold with HBSS, to prepare a stain mixture liquid, and the prepared stain mixture liquid was added in an amount of 200 microliters each. The cell contained container was then left to stand still in a 5% CO2 incubator for 20 minutes.
A fluorescence microscope image of the cell stained container after staining was completed was captured with a fluorescence microscope. The obtained fluorescence microscope image was processed with image processing software IMAGE J, to calculate the number of cells and the number of dead cells.

[2] = system: IL-8 production of nerve cells C and nerve cells D; assay: Cytotoxicity evaluation: inflammatory substance production (IL-8 ELISA); assay type: cell-based, human; settings: 100, 160, 220 micromoles; 20 hours; FIG. 25
Method: In the same manner as in the evaluation of the cell survival rate, a N9 culture medium (available from Elixirgen Scientific, LLC) to which zinc chloride was added was added, and the container was left to stand still overnight (for 20 hours) in a CO2 incubator at 37 degrees C.
In order to evaluate the influence of zinc chloride on inflammatory substance production, only the culture medium was recovered with a micropipette. IL-8 production was measured by ELISA method using a protein measurement kit (product name: HUMAN IL-8 ELISA READY-SET-GO! (registered trademark), available from Affymetrix), and absorbances at 450 nm, and as a reference value, at 570 nm were measured with a plate reader. The results are plotted in FIG. 25.

[3] = system: nerve cells C and nerve cells D; assay type: cell-based, human; settings: 100, 160, 220 micromoles; 20 hours; FIG. 24
Method: In the same manner as in the evaluation of the cell survival rate, the N9 culture medium to which zinc chloride was added as described above was added, and the container was left to stand still overnight (for 20 hours) in a CO2 incubator at 37 degrees C.
In order to evaluate the influence of zinc chloride on cell membrane damage, only the culture medium was recovered with a micropipette and put in a 96-well cell contained container, a LDH assay reagent (product name: CYTOTOXICITY DETECTION KIT, available from Roche) was further added to each, and the resultant was allowed to undergo reaction at room temperature (23 degrees C.) for 5 minutes. Subsequently, absorbances at 492 nm, and as a reference value, at 620 nm were measured with a plate reader, to evaluate “cell membrane damage rate”. The results are plotted in FIG. 24.

[4] = system: nerve cells C and nerve cells D; assay type: cell-based, human; settings: 100, 160, 220 micromoles; 20 hours; FIG. 23
Method: N9 culture media (available from Elixirgen Scientific, LLC) to which zinc chloride as a test substance at four concentration conditions of 0 micromoles, 100 micromoles, 160 micromoles, and 220 micromoles was added respectively were added in the evaluation container of Production example 2 in an amount of 100 microliters with a micropipette, and the container was left to stand still overnight (for 20 hours) in a CO2 incubator at 37 degrees C.
Next, in order to evaluate the influence of zinc chloride on the cell survival rate, a WST-1 reagent (product name: PREMIX WST-1 CELL PROLIFERATION ASSAY SYSTEM, available from Takara Bio Inc.) was added in an amount of 10 microliters per well (concave), and left to stand still for 1 hour in an CO2 incubator at 37 degrees C. to be allowed to undergo reaction. Subsequently, absorbances at 450 nm, and as a reference value, at 570 nm were measured with a plate reader (instrument name: CYTATION 5, available from Bio Tek Instruments Inc.), to evaluate “cell survival rate”. The results are plotted in FIG. 23.

[5] = drug concentration 0.1 micromoles
[6] = drug concentration 0.3 micromoles
[7] = drug concentration 1.0 micromoles
[8] = drug concentration 3.0 micromoles
[9] = drug concentration 10 micromoles

Row | SMILES | Drug efficacy rate (living cells/dead cells) [1, 5] | Living cells [1, 5] | Drug efficacy rate (living cells/dead cells) [1, 6] | Dead cells [1, 6] | Living cells [1, 6] | Drug efficacy rate (living cells/dead cells) [1, 7] | Living cells [1, 7] | Drug efficacy rate (living cells/dead cells) [1, 8] | Dead cells [1, 8] | Living cells [1, 8] | Drug efficacy rate (living cells/dead cells) [1, 9] | Dead cells [1, 9] | Living cells [1, 9] | inflammatory substance production (IL-8), nerve cells C compared with nerve cells D [2] | cell membrane damage rate, nerve cells C compared with nerve cells D [3] | cell survival rate, nerve cells C compared with nerve cells D [4]
1 | CN[C@@H]1C[C@H]2O[C@@](C)([C@@H]1OC)n1c3ccccc3c3c4c(c5c6ccccc6n2c5c31)C(=O)NC4 [STAUROSPORINE] | 70% | 271 cell | 57% | 202 cell | 270 cell | 54% | 268 cell | 42% | 270 cell | 197 cell | 2% | 474 cell | 11 cell | – | – | –
2 | [Cl-].[Cl-].[Zn+2] [zinc chloride] | – | – | – | – | – | – | – | – | – | – | – | – | – | almost the same toxic response tendency | almost the same toxic response tendency | almost the same toxic response tendency
